Literature values as cited in patent publication US20160376245A1, “IMPURITY OF FAMOTIDINE” (GAVIS PHARMACEUTICALS, priority 2015, published 2016).
Read-outs that look alike come from different tables or passages of the source.

Compound: NC(N)=Nc1nc(CSCCC(N)=NS(N)(=O)=O)cs1 [Famotidine, N-(aminosulfonyl)-3-[[[2-[(diaminomethylene)amino]-4-thiazolyl]methyl]thio] propanimidamide]
- solubility (in ethanol): practically insoluble
- solubility (in glacial acetic acid): freely soluble
- solubility (in methanol): slightly soluble
- solubility (in water): very slightly soluble
